One assay concerns the target T1, muscarinic M2 receptor (Homo sapiens, UniProt P08172).
T1 construct: expressed in transfected cells
T1 sequence (P08172 1-466): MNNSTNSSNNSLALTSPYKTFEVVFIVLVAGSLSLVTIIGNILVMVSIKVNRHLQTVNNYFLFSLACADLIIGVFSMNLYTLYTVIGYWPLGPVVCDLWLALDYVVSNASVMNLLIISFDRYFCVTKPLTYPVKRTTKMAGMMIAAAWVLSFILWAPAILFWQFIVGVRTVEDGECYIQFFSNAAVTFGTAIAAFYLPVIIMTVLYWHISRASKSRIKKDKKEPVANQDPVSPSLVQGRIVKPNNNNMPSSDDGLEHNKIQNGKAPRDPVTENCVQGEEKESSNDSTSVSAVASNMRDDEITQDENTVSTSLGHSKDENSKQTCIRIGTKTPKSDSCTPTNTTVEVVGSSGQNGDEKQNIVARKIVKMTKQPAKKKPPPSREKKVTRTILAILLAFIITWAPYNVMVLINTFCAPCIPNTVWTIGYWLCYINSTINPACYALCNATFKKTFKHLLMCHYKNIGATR
Kind of assay: R-SAT functional screen, M2. The note with it: R-SAT; for Emax: read-out: M2 eff (efficacy); for EC50: read-out: M2 pEC50 (converted). The format is cell-based. As for the experimental part: (§1) Several compounds disclosed herein were evaluated for activity at muscarinic receptors using Receptor Selection and Amplification Technology (R-SAT) as described in U.S. Pat. No. 5,707,798, the disclosure of which is incorporated herein by reference in its entirety. The efficacy (eff) and potency (expressed as pEC50) of these compounds are presented in Table 1 at M1, M2, and M3 receptors.

The target in another assay is T2, muscarinic M1 receptor (Homo sapiens, UniProt P11229).
T2 construct: expressed in transfected cells
T2 sequence (P11229 1-460): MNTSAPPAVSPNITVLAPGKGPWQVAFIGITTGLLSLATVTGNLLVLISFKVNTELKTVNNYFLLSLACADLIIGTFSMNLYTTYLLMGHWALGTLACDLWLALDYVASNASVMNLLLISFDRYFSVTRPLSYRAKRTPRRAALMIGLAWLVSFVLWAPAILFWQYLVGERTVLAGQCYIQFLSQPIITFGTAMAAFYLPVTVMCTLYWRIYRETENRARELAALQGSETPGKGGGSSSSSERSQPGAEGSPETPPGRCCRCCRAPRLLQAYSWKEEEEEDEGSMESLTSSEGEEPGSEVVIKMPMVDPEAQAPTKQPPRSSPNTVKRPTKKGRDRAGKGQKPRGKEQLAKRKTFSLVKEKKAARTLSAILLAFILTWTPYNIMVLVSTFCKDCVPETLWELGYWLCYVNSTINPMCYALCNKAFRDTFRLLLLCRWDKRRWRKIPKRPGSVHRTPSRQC
Kind of assay: R-SAT functional screen, M1. It counts as cell-based. The note with it: R-SAT; for Emax: read-out: M1 eff (efficacy). As for the experimental part:
as §1

For the molecule `Clc1ccc2c(c1)N=C(N1CCNCC1)c1ccccc1N2Cc1ccccc1`, the Emax on muscarinic M2 receptor was 16%; on muscarinic M1 receptor, 41%. Moreover, at muscarinic M1 receptor (read-out: M1 pEC50 (converted)), the EC50 was 501 nM. `C[C@@H]1CN(C2=Nc3cc(Cl)ccc3Nc3ccccc32)[C@@H](C)CN1` (relative stereo) [8-Chloro-11-(trans-2,5-dimethyl-piperazin-1-yl)-5H-dibenzo[b,e][1,4]diazepine]: the Emax on muscarinic M2 receptor was 24%; at muscarinic M1 receptor it was 8%. Turning to `Clc1ccc2c(c1)N=C(N1CCNCC1)c1c(Cl)cccc1N2` [1,8-Dichloro-11-(piperazin-1-yl)-5H-dibenzo[b,e][1,4]diazepine], at muscarinic M2 receptor, the Emax was determined as 84% and the EC50 was 2000 nM.

On to `NC1CCN(C2=Nc3cc(Cl)ccc3Nc3ccccc32)CC1` [1-(8-Chloro-5H-dibenzo[b,e][1,4]diazepin-11-yl)-piperidine-4-yl-amine], for which, on muscarinic M2 receptor, the Emax amounted to 95% and the EC50 is 2510 nM. In addition, the Emax on muscarinic M1 receptor is 6%. Consider `NC1CCN(C2=Nc3cc(Cl)ccc3Nc3ccccc32)C1` (stereo not drawn) [1-(8-Chloro-5H-dibenzo[b,e][1,4]diazepin-11-yl)-pyrrolidin-3-yl-amine], for which, on muscarinic M2 receptor, the Emax amounted to 36% and the EC50 was 3160 nM. Moreover, on muscarinic M1 receptor, the Emax stood at 8%. With `Clc1ccc2c(c1)Nc1ccc(Cl)cc1C(N1CCNCC1)=N2` [2,7-Dichloro-11-(piperazin-1-yl)-5H-dibenzo[b,e][1,4]diazepine], the values for the Emax on muscarinic M2 receptor and on muscarinic M1 receptor were -14% and -2%, respectively. As for `Brc1ccc2c(c1)N=C(N1CCNCC1)c1cc(Br)ccc1O2` [2,8-Dibromo-11-(piperazin-1-yl)-dibenzo[b,f][1,4]oxazepine], at muscarinic M2 receptor, the Emax worked out at 6%. As to `Clc1ccc2c(c1)N=C(N1CCNCC1)c1cc(Cl)ccc1N2` [2,8-Dichloro-11-(piperazin-1-yl)-5H-dibenzo[b,e][1,4]diazepine], the Emax on muscarinic M2 receptor worked out at 24%; at muscarinic M1 receptor, 1%. Take `O=S(=O)(Oc1ccc2c(c1)C(N1CCNCC1)=Nc1ccccc1N2)C(F)(F)F` [2-(Trifluoromethanesulfonyloxy)-11-(piperazin-1-yl)-5H-dibenzo[b,e][1,4]diazepine]: the values for the Emax on muscarinic M2 receptor and on muscarinic M1 receptor were 9% and -8%, respectively. In the case of `O=S(=O)(Oc1ccc2c(c1)C(N1CCNCC1)=Nc1ccccc1O2)C(F)(F)F` [2-(Trifluoromethanesulfonyloxy)-11-(piperazin-1-yl)-5H-dibenzo[b,e][1,4]oxazepine], the values for the Emax on muscarinic M2 receptor and on muscarinic M1 receptor were 4% and -11%, respectively. In the case of `Clc1ccc2c(c1)Oc1ccc(Br)cc1C(N1CCNCC1)=N2` [2-Bromo-7-chloro-11-(piperazin-1-yl)-dibenzo[b,f][1,4]oxazepine], the Emax on muscarinic M2 receptor came out at 15%.

Take `Clc1ccc2c(c1)N=C(N1CCNCC1)c1cc(Br)ccc1N2` [2-Bromo-8-chloro-11-(piperazin-1-yl)-5H-dibenzo[b,e][1,4]diazepine]: the Emax is 19% on muscarinic M2 receptor and 6% at muscarinic M1 receptor. With `Clc1ccc2c(c1)N=C(N1CCNCC1)c1cc(Br)ccc1O2` [2-Bromo-8-chloro-11-(piperazin-1-yl)-dibenzo[b,f][1,4]oxazepine], the Emax on muscarinic M2 receptor is 13%. With `Fc1ccc2c(c1)N=C(N1CCNCC1)c1cc(Br)ccc1O2` [2-Bromo-8-fluoro-11-(piperazin-1-yl)-dibenzo[b,f][1,4]oxazepine], the Emax at muscarinic M2 receptor was determined as 21%. In the case of `Cc1ccc2c(c1)N=C(N1CCNCC1)c1cc(Br)ccc1O2` [2-Bromo-8-methyl-11-(piperazin-1-yl)-dibenzo[b,f][1,4]oxazepine], the Emax on muscarinic M2 receptor worked out at 17%. As to `FC(F)(F)c1ccc2c(c1)N=C(N1CCNCC1)c1cc(Br)ccc1O2` [2-Bromo-11-(piperazin-1-yl)-8-trifluoromethyl-dibenzo[b,f][1,4]oxazepine], the Emax on muscarinic M2 receptor was 11%. Same read-out and setting: then `Brc1ccc2c(c1)C(N1CCNCC1)=Nc1ccccc1O2` [2-Bromo-11-(piperazin-1-yl)-dibenzo[bf][1,4]oxazepine], with 9%.

`FC(F)(F)c1ccc2c(c1)N=C(N1CCNCC1)c1ccc(Cl)cc1N2` [3-Chloro-11-(piperazin-1-yl)-8-trifluoromethyl-5H-dibenzo[b,e][1,4]diazepine]: the Emax on muscarinic M1 receptor was 11%. On to `COc1ccc2c(c1)Oc1ccc(C)cc1N=C2N1CCNCC1` [3-Methoxy-8-methyl-11-(piperazin-1-yl)-dibenzo[b,f][1,4]oxazepine], for which, at muscarinic M2 receptor, the Emax worked out at 45% and the EC50 was 3160 nM. `COc1ccc2c(c1)Oc1ccc(C(F)(F)F)cc1N=C2N1CCNCC1` [3-Methoxy-11-(piperazin-1-yl)-8-trifluoromethyl-dibenzo[b,f][1,4]oxazepine]: the Emax at muscarinic M2 receptor stood at 17%. With `COc1ccc2c(c1)Oc1ccccc1N=C2N1CCNCC1` [3-Methoxy-11-(piperazin-1-yl)-dibenzo[b,f][1,4]oxazepine], at muscarinic M2 receptor, the Emax stood at 45% and the EC50 is 2510 nM.

With `Cc1ccc2c(c1)N=C(N1CCNCC1)c1cccc(C)c1O2` [4,8-Dimethyl-11-(piperazin-1-yl)-dibenzo[b,f][1,4]oxazepine], at muscarinic M2 receptor, the Emax worked out at 46% and the EC50 is 794 nM. In the case of `Cc1cccc2c1Oc1ccccc1N=C2N1CCNCC1` [4-Methyl-11-(piperazin-1-yl)-dibenzo[b,f][1,4]oxazepine], the Emax at muscarinic M2 receptor is 22%.

Regarding `Clc1cccc2c1Nc1ccccc1C(N1CCNCC1)=N2` [6-Chloro-11-(piperazin-1-yl)-5H-dibenzo[b,e][1,4]diazepine], the Emax at muscarinic M2 receptor came to 71%. As for `COc1ccc2c(c1)Oc1cc(Cl)ccc1N=C2N1CCNCC1` [7-Chloro-3-methoxy-11-(piperazin-1-yl)-dibenzo[b,f][1,4]oxazepine], on muscarinic M2 receptor, the Emax came to 44% and the EC50 is 1000 nM. Turning to `Cc1cccc2c1Oc1cc(Cl)ccc1N=C2N1CCNCC1` [7-Chloro-4-methyl-11-(piperazin-1-yl)-dibenzo[b,f][1,4]oxazepine], at muscarinic M2 receptor, the Emax was found to be 28% and the EC50 is 398 nM. With `Clc1ccc2c(c1)Oc1ccccc1C(N1CCNCC1)=N2` [7-Chloro-11-(piperazin-1-yl)-dibenzo[b,f][1,4]oxazepine], at muscarinic M2 receptor, the Emax is 53% and the EC50 is 1260 nM. `COc1ccc2c(c1)Oc1ccc(Br)cc1N=C2N1CCNCC1` [8-Bromo-3-methoxy-11-(piperazin-1-yl)-dibenzo[b,f][1,4]oxazepine]: the Emax at muscarinic M2 receptor was found to be 21%.

`Cc1cccc2c1Oc1ccc(Br)cc1N=C2N1CCNCC1` [8-Bromo-4-methyl-11-(piperazin-1-yl)-dibenzo[b,f][1,4]oxazepine]: at muscarinic M2 receptor, the Emax is 48% and the EC50 was 1580 nM. On to `COc1ccc2c(c1)Oc1ccc(Cl)cc1N=C2N1CCNCC1` [8-Chloro-3-methoxy-11-(piperazin-1-yl)-dibenzo[b,f][1,4]oxazepine], for which, on muscarinic M2 receptor, the Emax worked out at 19%. As to `COc1ccc2c(c1)Oc1ccc(F)cc1N=C2N1CCNCC1` [8-Fluoro-3-methoxy-11-(piperazin-1-yl)-dibenzo[b,f][1,4]oxazepine], on muscarinic M2 receptor, the Emax is 49% and the EC50 is 2510 nM. As for `Cc1ccc2c(c1)N=C(N1CCNCC1)c1ccccc1O2` [8-Methyl-11-(piperazin-1-yl)-dibenzo[b,f][1,4]oxazepine], on muscarinic M2 receptor, the Emax turned out to be 76% and the EC50 was 3160 nM.

On to `c1ccc(-c2ccc3c(c2)N=C(N2CCNCC2)c2ccccc2N3)cc1` [8-Phenyl-11-(piperazin-1-yl)-5H-dibenzo[b,e][1,4]diazepine], for which, at muscarinic M2 receptor, the Emax amounted to 104% and the EC50 is 2000 nM. Take `c1ccc(-c2ccc3c(c2)N=C(N2CCNCC2)c2ccccc2O3)cc1` [8-Phenyl-11-(piperazin-1-yl)-dibenzo[b,f][1,4]oxazepine]: at muscarinic M2 receptor, the Emax is 33% and the EC50 was 1260 nM. Consider `FC(F)(F)c1ccc2c(c1)N=C(N1CCNCC1)c1ccccc1O2` [11-(piperazin-1-yl)-8-trifluoromethyl-dibenzo[b,f][1,4]oxazepine], for which, on muscarinic M2 receptor, the Emax amounted to 58% and the EC50 was 1260 nM. On the same counts, the results for `c1ccc2c(c1)N=C(N1CCNCC1)c1ccccc1O2` [11-(piperazin-1-yl)-dibenzo[b,f][1,4]oxazepine] are 58% and 2000 nM. As for `Clc1ccc2c(c1)N=C(NC1CNC1)c1ccccc1N2` [Acetidin-3-yl-(8-chloro-5H-dibenzo[b,e][1,4]diazepine-11-yl)amine], the Emax on muscarinic M2 receptor amounted to 17%.

The record behind these values is patent US20090239840A1, “AMINO SUBSTITUTED DIARYL[a,d]CYCLOHEPTENE ANALOGS AS [sequence] AGONISTS AND METHODS OF TREATMENT OF NEUROPSYCHIATRIC DISORDERS” (ACADIA PHARMACEUTICALS, INC., priority 2003, published 2009).
